Consider eleven molecules from ChEMBL document CHEMBL1201862, “PubChem BioAssay data set” (2004).

Each structure is given as a SMILES string.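 1) Cells in 96-well plates. 2) Compound, 48 h, 5 concentrations. 3) Linear interpolation between surrounding doses. 4) Unreached endpoint = highest concentration. GI50 = concentration required for 50% inhibition of growth.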 Calls of active or inactive are those of the source. Rule as the data show it: active = GI50 up to about 1.1 µM and inactive = higher. Some results are limits rather than exact numbers.

Test systems include OVCAR-3; Hs-578T; NCI-H226; SNB-75; U-251; K562; UACC-62; SK-MEL-28; MDA-MB-231; HCT-116; SK-MEL-5; IGROV-1; NCI-H23; OVCAR-8; OVCAR-5; RPMI-8226; HT-29; PC-3; HL-60.
What all share (experiment): inhibition of tumour cell growth, NCI panel, 48 h

On to `CCCCn1c2c(n(CCCC)c1=S)-c1c(n(CCCC)c(=S)n1CCCC)SSSS2`, for which the GI50 in the assay on OVCAR-3 was 0.267 µM (active); in the assay with Hs-578T it was 3.82 µM (inactive); in the assay with NCI-H226, 16.6 µM (inactive); with SNB-75, 4.48 µM (inactive); in the assay with U-251, 1.99 µM (inactive); in the assay with K562, 0.371 µM (active). For the same molecule, the GI50 in the assay on UACC-62 is 1.47 µM (inactive); with SK-MEL-28, 9.02 µM (inactive); with MDA-MB-231 it was 0.656 µM (active); in the assay with HCT-116, 2.24 µM (inactive); with SK-MEL-5, 2.09 µM (inactive); with IGROV-1, 0.7 µM (active). Also, the GI50 in the assay on NCI-H23 was 3.31 µM (inactive); in the assay with OVCAR-8, 0.718 µM (active); in the assay with OVCAR-5, 0.362 µM (active); with RPMI-8226 it was 0.399 µM (active); in the assay with HT-29, 2.26 µM (inactive); in the assay on PC-3, 0.414 µM (active).

For `COc1cc2c(cc1OC)C1c3ccccc3CCN1CC2` (stereo not given), the GI50 in the assay with OVCAR-3 was > 100 µM (inactive); in the assay on Hs-578T it was 58.2 µM (inactive); with NCI-H226 it was 41.2 µM (inactive); in the assay with SNB-75 it was 44.6 µM (inactive); in the assay with HL-60, 30.4 µM (inactive); in the assay on U-251, 95.3 µM (inactive). Also, the GI50 is 57.7 µM (inactive) in the assay on K562; 58.1 µM (inactive) in the assay on UACC-62; 79.3 µM (inactive) in the assay on SK-MEL-28; 68.7 µM (inactive) in the assay on MDA-MB-231; 36.8 µM (inactive) with HCT-116; 81.1 µM (inactive) in the assay on SK-MEL-5. For the same molecule, the GI50 was 53.3 µM (inactive) with IGROV-1; 63.5 µM (inactive) in the assay on NCI-H23; > 100 µM (inactive) in the assay on OVCAR-8; > 100 µM (inactive) with OVCAR-5; 28.5 µM (inactive) in the assay with HT-29; > 100 µM (inactive) in the assay with PC-3.

Regarding `COc1ccc(N2/C(=N/c3ccccc3)SC(=N/S(=O)(=O)c3ccccc3)/C2=N\S(=O)(=O)c2ccccc2)cc1`, the GI50 with Hs-578T is 18.6 µM (inactive); in the assay on NCI-H226, 21.8 µM (inactive); with SNB-75, 19.4 µM (inactive); in the assay with HL-60, 12.1 µM (inactive); with U-251, 16.7 µM (inactive); in the assay with K562, 16.9 µM (inactive). The GI50 with UACC-62 was 6.82 µM (inactive); in the assay on SK-MEL-28, 14.5 µM (inactive); in the assay with MDA-MB-231 it was 14.3 µM (inactive); in the assay on HCT-116, 12.6 µM (inactive); in the assay on SK-MEL-5, 16.6 µM (inactive); in the assay with IGROV-1, 13 µM (inactive). Also, the GI50 in the assay with NCI-H23 was 12.9 µM (inactive); in the assay with OVCAR-8, 18.2 µM (inactive); in the assay with OVCAR-5 it was 22.6 µM (inactive); with RPMI-8226, 20.7 µM (inactive); in the assay with HT-29 it was 19.6 µM (inactive); with PC-3, 16.7 µM (inactive).

On to `Cc1ccc(C)c(NC(=O)C(Cc2c[nH]c3ccccc23)NC(=O)OCc2ccccc2)c1` (stereo not given), for which the GI50 in the assay on OVCAR-3 is 29.7 µM (inactive); with Hs-578T, 58.7 µM (inactive); in the assay with SNB-75, 11.3 µM (inactive); with HL-60 it was 3 µM (inactive); in the assay with U-251, 17.1 µM (inactive); in the assay with K562, 12.7 µM (inactive). Further, the GI50 is 15.9 µM (inactive) with UACC-62; 25.8 µM (inactive) in the assay with SK-MEL-28; 16.1 µM (inactive) with MDA-MB-231; 23 µM (inactive) in the assay on HCT-116; 10.8 µM (inactive) with SK-MEL-5; 18.2 µM (inactive) with IGROV-1. The GI50 with NCI-H23 is 21.3 µM (inactive); in the assay on OVCAR-8 it was 17.5 µM (inactive); in the assay on OVCAR-5, 25.6 µM (inactive); in the assay on RPMI-8226 it was 12 µM (inactive); in the assay on HT-29, 12.4 µM (inactive); in the assay with PC-3, 11.5 µM (inactive).

As for `O=C(/N=C1/NCC(CN2CCN(c3ccccc3)CC2)O1)Nc1ccccc1` (stereo not given), the GI50 in the assay with Hs-578T, in the assay with NCI-H226, with HL-60, in the assay on U-251, in the assay on K562 and with UACC-62 was > 100 µM (inactive) in each case. Further, the GI50 in the assay on SK-MEL-28, in the assay with MDA-MB-231, in the assay with HCT-116, in the assay with SK-MEL-5, with IGROV-1 and in the assay on NCI-H23 was > 100 µM (inactive) in each case. In addition, the GI50 with OVCAR-5 is > 100 µM (inactive); in the assay on RPMI-8226, > 100 µM (inactive); in the assay on HT-29, 63.8 µM (inactive); in the assay on PC-3, > 100 µM (inactive).

As for `c1ccc2sc(SSSc3nc4ccccc4s3)nc2c1`, the GI50 in the assay on Hs-578T is > 100 µM (inactive); in the assay with NCI-H226, > 100 µM (inactive); with SNB-75 it was > 100 µM (inactive); in the assay with HL-60, 49.2 µM (inactive); in the assay on U-251, > 100 µM (inactive); with K562 it was > 100 µM (inactive). Also, the GI50 in the assay on UACC-62, with SK-MEL-28, with MDA-MB-231, in the assay with HCT-116, in the assay with SK-MEL-5 and with IGROV-1 was > 100 µM (inactive) each time. For the same molecule, the GI50 is > 100 µM (inactive) in the assay with NCI-H23; 55.6 µM (inactive) in the assay on OVCAR-8; > 100 µM (inactive) with OVCAR-5; > 100 µM (inactive) in the assay on RPMI-8226; 35.7 µM (inactive) in the assay on HT-29; > 100 µM (inactive) in the assay on PC-3.

Take `Oc1ccc(O)c(CNc2ccc(C(O)C(F)(F)F)cc2)c1` (stereo not given): the GI50 with OVCAR-3 is 3.98 µM (inactive); in the assay on Hs-578T, 41.2 µM (inactive); with NCI-H226 it was 18.4 µM (inactive); with SNB-75 it was 12.2 µM (inactive); in the assay on HL-60, 3.42 µM (inactive); in the assay on U-251, 35.8 µM (inactive). In addition, the GI50 with K562 is 11.9 µM (inactive); in the assay on UACC-62 it was 15.7 µM (inactive); with SK-MEL-28 it was 31.6 µM (inactive); with MDA-MB-231, 15.6 µM (inactive); in the assay on HCT-116, 16.7 µM (inactive); with SK-MEL-5, 29.3 µM (inactive). In addition, the GI50 is 12.9 µM (inactive) in the assay on IGROV-1; 21.4 µM (inactive) in the assay on NCI-H23; 10.4 µM (inactive) in the assay with OVCAR-8; 20.5 µM (inactive) with OVCAR-5; 32.4 µM (inactive) in the assay on HT-29; 16.3 µM (inactive) with PC-3.

Regarding `CCOC(=O)N1C=CC(=C2C(=C3C=CN(C(=O)OCC)C=C3)C(=C3C=CN(C(=O)OCC)C=C3)C2=C2C=CN(C(=O)OCC)C=C2)C=C1`, the GI50 was 22.4 µM (inactive) in the assay on OVCAR-3; 16 µM (inactive) with Hs-578T; 22.3 µM (inactive) in the assay on NCI-H226; 47.1 µM (inactive) in the assay with SNB-75; 33 µM (inactive) in the assay with HL-60; 13.7 µM (inactive) in the assay with U-251. For the same molecule, the GI50 with K562 was 23.8 µM (inactive); with UACC-62, 16.9 µM (inactive); in the assay on SK-MEL-28, 27.5 µM (inactive); in the assay on MDA-MB-231, 10.4 µM (inactive); with HCT-116, 11.1 µM (inactive); in the assay on SK-MEL-5 it was 26.5 µM (inactive). The GI50 is 16.1 µM (inactive) in the assay on IGROV-1; 26.2 µM (inactive) with NCI-H23; 27.1 µM (inactive) with OVCAR-8; 36.8 µM (inactive) with OVCAR-5; 22.2 µM (inactive) in the assay on HT-29; 17.1 µM (inactive) in the assay on PC-3.

Regarding `COC(=O)C(=O)C(C(=O)C(=O)Nc1ccc(C)cc1C)c1nc2ccc(Cl)cc2nc1O` (stereo not given), the GI50 in the assay on OVCAR-3 was > 100 µM (inactive); in the assay on Hs-578T it was > 100 µM (inactive); with NCI-H226 it was > 100 µM (inactive); in the assay on SNB-75, > 100 µM (inactive); with HL-60, 78 µM (inactive); with U-251 it was > 100 µM (inactive). The GI50 in the assay on UACC-62, in the assay with SK-MEL-28, with MDA-MB-231, with HCT-116, with SK-MEL-5 and in the assay with IGROV-1 was > 100 µM (inactive) throughout. The GI50 in the assay on NCI-H23, in the assay on OVCAR-8, with OVCAR-5, with HT-29 and in the assay with PC-3 was > 100 µM (inactive) in each case.

Consider `COc1ccc(/C=N/n2c(=O)[nH]c3ccccc3c2=O)cc1`, for which the GI50 is > 100 µM (inactive) with OVCAR-3; 36.4 µM (inactive) in the assay on Hs-578T; > 100 µM (inactive) in the assay on NCI-H226; 50.8 µM (inactive) with SNB-75; > 100 µM (inactive) in the assay on U-251; > 100 µM (inactive) with K562. Besides, the GI50 with UACC-62, with SK-MEL-28, with MDA-MB-231, in the assay on HCT-116, in the assay with SK-MEL-5 and with IGROV-1 was > 100 µM (inactive) in each case. Further, the GI50 with NCI-H23, in the assay with OVCAR-8, in the assay with OVCAR-5, in the assay with RPMI-8226, in the assay with HT-29 and in the assay with PC-3 was > 100 µM (inactive) throughout.

Consider `COc1ccccc1/N=N/c1c(O)c(S(=O)(=O)O)cc2cc(S(=O)(=O)O)ccc12`, for which the GI50 in the assay on OVCAR-3, in the assay on Hs-578T, in the assay on NCI-H226, in the assay on SNB-75, with U-251 and in the assay with K562 was > 100 µM (inactive) each time. The GI50 in the assay with UACC-62, in the assay on SK-MEL-28, in the assay on MDA-MB-231, in the assay with HCT-116, in the assay with SK-MEL-5 and in the assay on IGROV-1 was > 100 µM (inactive) throughout. Besides, the GI50 with NCI-H23, with OVCAR-8, with OVCAR-5, with RPMI-8226, in the assay with HT-29 and in the assay on PC-3 was > 100 µM (inactive) throughout.
